According to patent US8853373B2, “Method and reagent for gene sequence analysis” (Hitachi, Ltd., priority 2009, dated 2014):

How the values were obtained:
luciferase = luciferase (Photinus pyralis, UniProt P08659); test: Evaluation of substrate specificity for luciferase (luminescence on dispensing the substrate); type: biochemical; details: for Substrate specificity (S) for luciferase, relative to that of ATP: amount of luminescence per unit concentration, substrate specificity of ATP normalized as 1
Description: In respect to the nucleic acid substrates synthesized, whether or not the substrates became a substrate for luciferase was evaluated by the following procedure. First, a luminescence reagent designated in Condition 1 of Table 1 was prepared.
Next, a reaction solution was prepared using 20 μL of this luminescence reagent, and 0.2 μL of a nucleic acid substrate of evaluation subject was injected. Then, luminescence emitted at this occasion was estimated. FIG. 6 is a graph showing the amount of luminescence when ATP, dATP, C^7dATP, and dATPαS are each dispensed as a substrate. The abscissa (C) indicates a final concentration of the compound in a reaction reagent. For example, when 0.2 μl of 1 μM substrate is dispensed, the final concentration is about 0.01 μM. An amount of luminescence (U) indicated in the ordinate was plotted by normalizing the amount of luminescence at 0.01 μM of ATP as 1. From this graph, the amount of luminescence (U) is found to be proportional to the final concentration (C). Because of this, as a substrate specificity (or substrate reactivity) for luciferase, the value (S) indicating the amount of luminescence per unit concentration is defined as described below. Substrate specificity (S)≡Amount of luminescence (U)/Final concentration (C)[μM]×0.01 (In this Definition, the Substrate Specificity of ATP is Normalized as 1).
The four points designated in the left side of the graph indicate each substrate specificity (S) of ATP, dATP, dATPαS, and C^7dATP. For a sequencing method using a stepwise chemical reaction represented by pyrosequencing, the amount of ATP generated from pyrophosphate produced in elongation of one nucleotide is equivalent to the amount of a target present in a reaction solution when all of the targets have been elongated. In addition, elongation of a plurality of nucleotides causes the amount to be multiplied by the number of the nucleotides. Generally speaking, the amount of a nucleic acid substrate which should be dispensed per reaction for sequencing requires about 100 times the amount of the target for analysis. This is because a sequenced region may sometimes contain about 10 consecutive identical nucleotides; and a reaction solution for this sequencing method has a substrate-degrading enzyme together, so that the nucleic acid elongation and substrate degradation are competed. Shortage of the substrates causes incomplete elongation, so that the following sequence analysis cannot be carried out. […] As a countermeasure against it, the substrate having about 100 times the target amount which has been generally used is preferably dispensed per reaction.
In this Example, the synthesized nucleic acid substrates were purified by liquid chromatography. However, removal of pyrophosphate that had been incorporated during the synthesis may be insufficiently carried out only by liquid chromatography-mediated purification. At that occasion, the present inventors treated the synthesized nucleic acid substrates by a pyrophosphate-degrading enzyme (PPase) to decompose the pyrophosphate. Specifically, the synthesized nucleic acid substrate was diluted in a reaction solution (100 mM Tris-Acetate, 0.5 mM EDTA, 5 mM Mg-Acetate, 1 mM DTT, pH 7.5) at a concentration of 500 μM. Then, PPase was added at 0.2 mU/μL, and the mixture was reacted at 30° C. for 30 minutes, which caused degradation of pyrophosphate in the solution. This method represents one example. […]

Sequence S1 = test: Sequence analysis by stepwise chemical reaction (pyrogram), ATP sulfurylase system, Condition 3; type: biochemical; details: Sequence S1 (maximum two consecutive nucleotides); final concentration 2 μM
Description: Next, by using the developed substrates, nucleotide sequences were analyzed. FIG. 15 is pyrograms showing the results of sequence analysis using synthetic nucleotide A3d as a substitute for dATP in a sequencing method using a stepwise chemical reaction. The analyzed oligo Sequence S1 and a primer […] are described below.
Of note is that the Sequence P2 represents a primer sequence. This primer can complementarily bind to the underlined portion of the above Sequence S1. In addition, reagent conditions used for the sequence analysis were designated in Condition 3 of Table 1.
At the bottom of each diagram, the injected nucleic acid substrate species (the injected nucleotide type) were designated. Among the species, the substrate represented by “A” is A3d in (1) and dATPαS in (2), respectively. Also, at the top, nucleotide types which were incorporated in this oligo were designated. Specifically, the nucleotide types represent a complementary strand sequence that is an upstream sequence of the portion (the underlined portion of the Sequence S1) which complementarily binds to the primer P2. […] In addition, the broken lines represent standard values which convert the amount of the resulting luminescence into the number of nucleotides. For example, with regard to the above “CC”, the amount of luminescence equivalent to two nucleotides was observed. […]

luciferase, sequence (P08659 whole entry, species assumed): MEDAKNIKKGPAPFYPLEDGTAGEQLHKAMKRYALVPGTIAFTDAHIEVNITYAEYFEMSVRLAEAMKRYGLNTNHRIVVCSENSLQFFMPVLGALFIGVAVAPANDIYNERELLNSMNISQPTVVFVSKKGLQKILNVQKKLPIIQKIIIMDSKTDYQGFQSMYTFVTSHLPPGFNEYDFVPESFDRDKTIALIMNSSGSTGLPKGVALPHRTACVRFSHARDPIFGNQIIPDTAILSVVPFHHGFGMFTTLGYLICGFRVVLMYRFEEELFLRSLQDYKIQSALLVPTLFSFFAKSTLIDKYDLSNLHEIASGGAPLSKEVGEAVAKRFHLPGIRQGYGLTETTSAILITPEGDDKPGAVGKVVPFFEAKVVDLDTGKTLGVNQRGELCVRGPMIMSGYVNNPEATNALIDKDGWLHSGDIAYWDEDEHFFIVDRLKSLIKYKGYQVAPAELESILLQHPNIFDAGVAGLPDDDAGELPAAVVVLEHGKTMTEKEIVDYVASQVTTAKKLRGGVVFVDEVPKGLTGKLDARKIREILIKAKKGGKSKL

Row | SMILES | Substrate specificity for luciferase compared with that of dATPαS (luciferase; FIG. 7) | Substrate specificity (S) for luciferase, relative to that of ATP (luciferase) | Sequence analysis result as substitute for dATP (Sequence S1)
1 | Nc1ncnc2c1c(/C=C/C(=O)NCCc1ccncc1)cn2[C@H]1CC(O)[C@@H](COP(=O)(O)OP(=O)(O)OP(=O)(O)O)O1 (some centres unmarked) [A3d] | about one order higher | 1/1000 | can be used for a nucleotide sequence analysis
2 | Nc1ncnc2c1ncn2[C@H]1C[C@H](O)[C@@H](COP(O)(=S)OP(=O)(O)OP(=O)(O)O)O1 (some centres unmarked) [dATPαS] | – | 1/10000 | can be used for a nucleotide sequence analysis
